In ChEMBL document CHEMBL5236583, “Semisynthesis, biological activities, and mechanism studies of Mannich base analogues of magnolol/honokiol as potential α-glucosidase inhibitors” (Bioorg Med Chem, 2022):
Activity calls are given as the source filed them. The calls are words filed in the database; no cut-off is given here.

Experiments:
[1] = molecular target: Maltase-glucoamylase (Homo sapiens) (UniProt O43451); assay: Inhibition of alpha-glucosidase (unknown origin) using pNPG as substrate at 64 uM preincubated with enzyme for 15 mins followed by substrate addition and measured after 10 mins by microplate reader analysis; details: time 25.0 min
Chain of Maltase-glucoamylase (Homo sapiens) (O43451 whole entry, looked up): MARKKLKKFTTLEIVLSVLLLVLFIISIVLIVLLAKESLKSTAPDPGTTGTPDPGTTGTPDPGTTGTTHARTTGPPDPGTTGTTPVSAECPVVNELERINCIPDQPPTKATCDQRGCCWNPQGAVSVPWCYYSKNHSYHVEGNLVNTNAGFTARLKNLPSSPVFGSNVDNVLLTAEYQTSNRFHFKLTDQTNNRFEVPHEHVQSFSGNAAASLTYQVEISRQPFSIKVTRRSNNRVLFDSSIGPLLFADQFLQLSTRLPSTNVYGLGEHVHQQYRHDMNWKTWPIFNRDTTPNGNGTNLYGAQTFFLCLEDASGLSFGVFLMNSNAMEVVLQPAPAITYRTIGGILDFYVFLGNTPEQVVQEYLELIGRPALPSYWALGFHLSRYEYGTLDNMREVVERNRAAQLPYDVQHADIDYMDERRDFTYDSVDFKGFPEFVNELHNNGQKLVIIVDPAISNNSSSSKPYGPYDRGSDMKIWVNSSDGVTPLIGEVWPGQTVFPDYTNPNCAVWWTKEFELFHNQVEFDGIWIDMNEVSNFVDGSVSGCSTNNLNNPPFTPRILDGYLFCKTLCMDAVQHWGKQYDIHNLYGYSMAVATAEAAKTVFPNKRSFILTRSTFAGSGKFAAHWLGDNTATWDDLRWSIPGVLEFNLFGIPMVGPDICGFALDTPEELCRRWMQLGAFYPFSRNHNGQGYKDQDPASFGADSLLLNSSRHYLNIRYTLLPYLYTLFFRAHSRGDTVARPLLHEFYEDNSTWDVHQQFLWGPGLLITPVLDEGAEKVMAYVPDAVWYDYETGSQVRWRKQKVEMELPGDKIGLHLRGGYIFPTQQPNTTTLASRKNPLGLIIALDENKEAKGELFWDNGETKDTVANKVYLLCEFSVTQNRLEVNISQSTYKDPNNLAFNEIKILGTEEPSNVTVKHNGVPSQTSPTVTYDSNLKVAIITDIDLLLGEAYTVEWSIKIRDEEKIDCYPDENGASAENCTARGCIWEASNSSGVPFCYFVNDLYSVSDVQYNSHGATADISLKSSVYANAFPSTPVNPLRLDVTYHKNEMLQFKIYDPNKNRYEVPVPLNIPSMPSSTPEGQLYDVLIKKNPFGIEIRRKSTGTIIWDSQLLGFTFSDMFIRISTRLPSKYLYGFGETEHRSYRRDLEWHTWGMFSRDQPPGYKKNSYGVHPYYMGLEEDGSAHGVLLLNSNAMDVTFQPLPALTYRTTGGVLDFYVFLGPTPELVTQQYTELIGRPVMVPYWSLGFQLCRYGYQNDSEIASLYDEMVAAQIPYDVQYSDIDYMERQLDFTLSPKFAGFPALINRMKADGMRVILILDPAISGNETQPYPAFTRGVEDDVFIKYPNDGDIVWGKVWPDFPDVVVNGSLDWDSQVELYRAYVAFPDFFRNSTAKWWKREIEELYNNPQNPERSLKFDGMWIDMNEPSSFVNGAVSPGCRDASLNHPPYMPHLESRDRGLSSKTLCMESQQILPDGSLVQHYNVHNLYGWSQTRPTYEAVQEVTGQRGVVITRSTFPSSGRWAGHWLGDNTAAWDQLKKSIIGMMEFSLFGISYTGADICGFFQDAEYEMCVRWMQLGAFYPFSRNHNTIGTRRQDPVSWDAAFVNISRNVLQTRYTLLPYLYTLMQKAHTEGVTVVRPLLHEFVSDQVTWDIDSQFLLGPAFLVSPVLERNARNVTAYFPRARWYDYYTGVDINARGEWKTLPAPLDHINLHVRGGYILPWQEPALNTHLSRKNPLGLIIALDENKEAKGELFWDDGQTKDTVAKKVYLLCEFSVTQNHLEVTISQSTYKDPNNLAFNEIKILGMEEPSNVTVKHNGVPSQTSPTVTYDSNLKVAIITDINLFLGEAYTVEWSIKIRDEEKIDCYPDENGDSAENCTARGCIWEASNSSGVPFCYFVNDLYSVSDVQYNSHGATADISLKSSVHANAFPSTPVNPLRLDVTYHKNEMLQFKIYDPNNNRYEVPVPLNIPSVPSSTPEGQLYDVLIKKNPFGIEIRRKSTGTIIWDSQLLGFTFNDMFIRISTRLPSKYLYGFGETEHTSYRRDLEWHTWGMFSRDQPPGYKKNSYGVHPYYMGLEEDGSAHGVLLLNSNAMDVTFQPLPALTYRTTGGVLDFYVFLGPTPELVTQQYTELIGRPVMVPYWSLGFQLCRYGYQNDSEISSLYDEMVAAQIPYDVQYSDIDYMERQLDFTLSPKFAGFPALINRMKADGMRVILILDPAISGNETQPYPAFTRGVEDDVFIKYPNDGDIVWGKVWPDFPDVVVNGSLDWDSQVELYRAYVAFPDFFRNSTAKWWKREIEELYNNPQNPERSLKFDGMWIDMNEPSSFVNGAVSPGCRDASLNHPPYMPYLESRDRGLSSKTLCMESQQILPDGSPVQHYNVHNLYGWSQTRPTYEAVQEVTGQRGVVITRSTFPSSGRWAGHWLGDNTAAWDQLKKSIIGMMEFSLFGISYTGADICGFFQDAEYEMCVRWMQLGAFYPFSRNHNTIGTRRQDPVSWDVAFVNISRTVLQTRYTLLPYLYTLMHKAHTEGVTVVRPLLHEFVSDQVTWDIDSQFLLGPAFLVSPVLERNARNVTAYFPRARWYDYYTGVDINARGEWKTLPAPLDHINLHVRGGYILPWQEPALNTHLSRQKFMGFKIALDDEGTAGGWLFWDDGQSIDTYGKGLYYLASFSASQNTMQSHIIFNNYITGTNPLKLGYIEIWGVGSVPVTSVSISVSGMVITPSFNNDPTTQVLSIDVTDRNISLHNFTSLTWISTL

[2] = Cytotoxicity against human L02 cells assessed as cell viability at 64 uM by CCK8 assay; assay type: toxicity, cell-based; details: read-out: Activity
[3] = molecular target: Maltase-glucoamylase (Homo sapiens) (UniProt O43451); assay: Reversible inhibition of alpha-glucosidase (unknown origin) using pNPG as substrate assessed as reduction in velocity of enzyme-catalyzed reaction
[4] = molecular target: Maltase-glucoamylase (Homo sapiens) (UniProt O43451); assay: Non-competitive inhibition of alpha-glucosidase (unknown origin) using pNPG as substrate preincubated with enzyme for 15 mins followed by substrate addition and measured for 15 mins by Lineweaver-Burk plot analysis; details: time 30.0 min
[5] = molecular target: Maltase-glucoamylase (Homo sapiens) (UniProt O43451); assay: Competitive inhibition of alpha-glucosidase (unknown origin) using pNPG as substrate preincubated with enzyme for 15 mins followed by substrate addition and measured for 15 mins by Lineweaver-Burk plot analysis; details: time 30.0 min

Row | inhibition [1] | SMILES | also measured
1 | 40.6% | C=CCc1cc(-c2ccc(O)c(CC=C)c2)c(O)c(C(c2ccc(Cl)cc2)N2CCCC2)c1 (stereo not drawn) | –
2 | 3.33% | C=CCc1cc(CN2CCCCC2C)c(O)c(-c2cc(CC=C)c(O)c(CN3CCCCC3C)c2)c1 (stereo not drawn) | –
3 | 25.8% | C=CCc1cc(-c2ccc(O)c(CC=C)c2)c(O)c(C(c2ccccc2)N2CCC(C)CC2)c1 (stereo not drawn) | –
4 | 4.7% | C=CCc1cc(CN(CCCC)CCCC)c(O)c(-c2cc(CC=C)c(O)c(CN(CCCC)CCCC)c2)c1 | –
5 | 30.6% | C=CCc1ccc(O)c(-c2ccc(O)c(CC=C)c2)c1 | –
6 | 8.6% | C=CCc1cc(-c2ccc(O)c(CC=C)c2)c(O)c(C(c2ccc(Cl)cc2)N2CCC(C)CC2)c1 (stereo not drawn) | –
7 | 87.7% | C=CCc1cc(-c2ccc(O)c(CC=C)c2)c(O)c(C(c2cc(Cl)cc(Cl)c2)N2CCCCC2)c1 (stereo not drawn) | viability at 64 µM [2]: > 80%
8 | 6.2% | C=CCc1cc(-c2ccc(O)c(CC=C)c2)c(O)c(C(c2ccc(OC)cc2)N2CCOCC2)c1 (stereo not drawn) | –
9 | 56.4% | C=CCc1cc(-c2ccc(O)c(CC=C)c2)c(O)c(C(c2cc(OC)c(OC)c(OC)c2)N2CCCCC2)c1 (stereo not drawn) | –
10 | 6.2% | C=CCc1cc(CN(CC(C)C)CC(C)C)c(O)c(-c2cc(CC=C)c(O)c(CN(CC(C)C)CC(C)C)c2)c1 | –
11 | 45% | C=CCc1cc(-c2ccc(O)c(CC=C)c2)c(O)c(C(c2ccc(Cl)cc2)N2CCCCC2)c1 (stereo not drawn) | –
12 | 4.1% | C=CCc1cc(CN(C)C(C)C)c(O)c(-c2cc(CC=C)c(O)c(CN(C)C(C)C)c2)c1 | –
13 | 6.5% | C=CCc1cc(CN2CCC(C)CC2)c(O)c(-c2cc(CC=C)c(O)c(CN3CCC(C)CC3)c2)c1 | –
14 | 97.5% | C=CCc1cc(-c2ccc(O)c(CC=C)c2)c(O)c(C(c2cc(Cl)cc(Cl)c2)N2CCC(C)CC2)c1 (stereo not drawn) | viability at 64 µM [2]: > 80%; inhibition [3]: Active; inhibition [4]: Active
15 | 63% | C=CCc1cc(CN(C)c2ccccc2)c(O)c(-c2cc(CC=C)c(O)c(CN(C)c3ccccc3)c2)c1 | –
16 | 7.2% | C=CCc1cc(CN(C(C)C)C(C)C)c(O)c(-c2cc(CC=C)c(O)c(CN(C(C)C)C(C)C)c2)c1 | –
17 | 80.1% | C=CCc1cc(-c2cc(CC=C)c(O)c(C(c3ccc(Cl)cc3)N3CCOCC3)c2)c(O)c(C(c2ccc(Cl)cc2)N2CCOCC2)c1 (stereo not drawn) | viability at 64 µM [2]: > 80%

Row | inhibition [1] | SMILES | also measured
18 | 6.3% | C=CCc1ccc(O)c(-c2cc(CC=C)cc(CN(CCC)CCC)c2O)c1 | –
19 | 9.4% | C=CCc1ccc(O)c(-c2cc(CC=C)cc(CN3CCN(C)CC3)c2O)c1 | –
20 | 4.7% | C=CCc1cc(CN2CCCC2)c(O)c(-c2cc(CC=C)c(O)c(CN3CCCC3)c2)c1 | –
21 | 4.8% | C=CCc1cc(CN(CCC)CCC)c(O)c(-c2cc(CC=C)c(O)c(CN(CCC)CCC)c2)c1 | –
22 | 15.5% | C=CCc1ccc(O)c(-c2cc(CC=C)cc(CN(C)c3ccccc3)c2O)c1 | –
23 | 3.8% | C=CCc1ccc(O)c(-c2cc(CC=C)cc(CN(CC(C)C)CC(C)C)c2O)c1 | –
24 | 99% | C[C@H]1O[C@H](O[C@H]2[C@H](O)[C@@H](O)[C@@H](O[C@H]3[C@H](O)[C@@H](O)C(O)O[C@@H]3CO)O[C@@H]2CO)[C@H](O)[C@@H](O)[C@@H]1N[C@H]1C=C(CO)[C@@H](O)[C@H](O)[C@H]1O (stereo partly drawn) | inhibition [5]: Active
25 | 9.6% | C=CCc1ccc(O)c(-c2cc(CC=C)ccc2O)c1 | –
26 | 92.6% | C=CCc1cc(-c2ccc(O)c(CC=C)c2)c(O)c(C(c2cc(Cl)cc(Cl)c2)N2CCOCC2)c1 (stereo not drawn) | viability at 64 µM [2]: > 80%; inhibition [3]: Active; inhibition [4]: Active
27 | 8.2% | C=CCc1ccc(O)c(-c2cc(CC=C)cc(CN(CCCC)CCCC)c2O)c1 | –
28 | 43% | C=CCc1cc(-c2ccc(O)c(CC=C)c2)c(O)c(C(c2cc(OC)c(OC)c(OC)c2)N2CCCC2)c1 (stereo not drawn) | –
29 | 27.8% | C=CCc1cc(-c2cc(CC=C)c(O)c(C(c3ccc(OC)cc3)N3CCC(C)CC3)c2)c(O)c(C(c2ccc(OC)cc2)N2CCC(C)CC2)c1 (stereo not drawn) | –
30 | 3.4% | C=CCc1ccc(O)c(-c2cc(CC=C)cc(CN(C)C(C)C)c2O)c1 | –
31 | 85% | C=CCc1cc(-c2ccc(O)c(CC=C)c2)c(O)c(C(c2ccc(OC)cc2)N2CCCCC2)c1 (stereo not drawn) | viability at 64 µM [2]: > 80%
32 | 6.3% | C=CCc1ccc(O)c(-c2cc(CC=C)cc(CN3CCC(C)CC3)c2O)c1 | –
33 | 13.6% | C=CCc1cc(-c2ccc(O)c(CC=C)c2)c(O)c(C(c2ccccc2)N2CCCCC2)c1 (stereo not drawn) | –
